Molecular target: PDEδ (Homo sapiens, UniProt O43924)
Test: SPR
Type: binding

Sequence of PDEδ (O43924 whole entry): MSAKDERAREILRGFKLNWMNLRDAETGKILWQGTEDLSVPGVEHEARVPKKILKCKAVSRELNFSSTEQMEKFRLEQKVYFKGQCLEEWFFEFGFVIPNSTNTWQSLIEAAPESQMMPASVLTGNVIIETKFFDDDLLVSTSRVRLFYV

Kd: 2260 nM
SMILES: O=C(COc1cccc2c1C(=O)N(C1CCC(=O)NC1=O)C2=O)NCCCOCCOCCOCCCNC(=O)c1cc(Oc2ccc(NC(=O)Nc3ccc(Cl)c(C(F)(F)F)c3)cc2)ccn1 (stereo not shown) [PROTAC T-S, 4-(4-(3-(4-chloro-3-(trifluoromethyl)phenyl)ureido)phenoxy)-N-(1-((2-(2,6-dioxopiperidin-3-yl)-1,3-dioxoisoindolin-4-l)oxy)-2-oxo-7,10,13-trioxa-3-azahexadecan-16-yl)picolinamide]

Source: doi:10.1101/2020.05.06.079947v2 (biorxiv, 2020)
